From US20260022122A1 (Checkmate Therapeutics Inc., priority 2022, published 2026)

Assays:
[1] = tested on: NAPRT negative lung cancer cell lines (H322, H661, H1155); assay: Proliferation inhibition on NAPRT negative lung cancer cell lines (CellTiter-Glo); type: cell-based; details: 72 hours
Protocol: (§1) A compound showing a low IC50 value was selected from the compounds of the above Examples and treated an NAPRT positive or negative lung cancer cell line with various concentrations, and then the change in cell viability for each cell line was measured. The results are presented in a graph (a few materials known as NamPT inhibitors were used as controls). A total of 9 cancer cells lines (three NAPRT negative cell lines: H322, H661, and H1155; and six NAPRT positive cell lines: H1993, H2122, H2030, H1975, H1299, and HBEC30) were used. 5% fetal bovine serum (Gibco, US) and 1% penicillin/streptomycin (Gibco) were added to a medium, and the cells were cultured in a 37° C. constant temperature incubator containing 5% CO2. For compound treatment, each type of cells were seeded at 3×10^3 cells/well in a 96-well plate (Corning) and then incubated in a 37° C. constant temperature incubator containing 5% CO2 for 18 hours. […] Afterwards, the cells were cultured in an incubator containing 5% CO2 at 37° C. for 72 hours. To confirm the effect of inhibiting the proliferation of cancer cells, a CellTiter-Glo Luminescent Cell Viability Assay (Promega) was used. After treating the cells with 10 μL of CellTiter-Glo luciferase reagent and leaving them for 15 minutes at room temperature, the luminescence of each well was measured using EnVision2105 (PerkinElmer). The change in cell viability by the compound diluted at the concentration of each step was converted into a relative % value for the amount of luminescence shown by DMSO treatment. EC50 is expressed as the concentration of each compound that induces 50% of the maximum luminescence level.
(§2) The results of measuring the proliferation inhibition ability of the compound of each Example on nine types of lung cancer cell lines, obtained through the above experiment, are shown in Table 2 in the unit of EC50 (μM). The resulting values are expressed as follows.

NamPT = NamPT (Homo sapiens (Human), UniProt P43490); assay: Measurement of NamPT inhibitory ability IC50 (NamPT colorimetric assay kit, Abcam ab221819); type: biochemical; details: NamPT recombinant protein, WST-1 absorbance at 450 nm; class key in μM
Protocol: To test the effect of the compound prepared in each Example on the substrate decomposition rate (Vmax/min) mediated by NamPT enzyme, IC50 was calculated. In this experiment, the NamPT colorimetric assay kit (ab221819) produced by Abcam was used, and Graph prism software was used for IC50 calculation. PRPP, ATP, NMNAT1, NamPT recombinant proteins, and various concentrations of the compound of each Example (half-log step dilution from 100 μM) were added to nicotinamide to synthesize nicotinamide adenine dinucleotide (NAD) from the nicotinamide, and a total of 60 μL of the reaction solution was reacted at room temperature for 1 hour. WST-1 formazan converted by NAD generated by adding WST-1 was measured. The result of the reaction was obtained by the following formula by measuring absorbance using EnVision2105 (PerkinElmer) at 450 nm for 60 minutes at 2-minute intervals.
In Mathematical Formula 1, T1 and T2 are arbitrary times, and A1 and A2 represent the absorbance measured at T1 and T2 at 450 nm, respectively.
The results of measuring the NamPT inhibition activity of the compound of each Example obtained through the above experiment are shown in Table 1 in the unit of IC50 (nM), and the result values are expressed as follows.

[2] = tested on: NAPRT positive cell lines (H1993, H2122, H2030, H1975, H1299, HBEC30); assay: Proliferation inhibition on NAPRT positive lung cancer cell lines (CellTiter-Glo); type: cell-based; details: 72 hours
Protocol: as §1, §2

[3] = tested on: NAPRT-negative gastric cancer cell line HGC27; assay: NAPRT-negative cancer cell xenograft model (% tumor growth inhibition); type: in vivo; details: 50 mg/kg, orally once a day from day 1 to day 21, HGC27 xenograft in BALB/c nude mice
Excerpt: Based on the effect of inhibiting proliferation limited to NAPRT-negative cancer cell lines according to the experiment of the proliferation inhibitory effect (EC50) on NAPRT-negative cancer cell lines, the pharmacological effect in a xenograft model using NAPRT-negative cancer cell lines was verified. Five-week-old female BALB/c nude mice were purchased and used in the experiment after acclimation for one week. The cancer cells used in the experiment were a NAPRT-negative gastric cancer cell line HGC27, and cultured in […] medium (Gibco) to which 5% Fetal Bovine Serum (Gibco, US) and 1% penicillin/streptomycin (Gibco) were added. HGC27 was suspended in PBS (Welgene) and transplanted to have 5×10^6 cells into each mouse. After adding Matrigel in the same value, tumors were induced by subcutaneous injection into the right flank using a 1 mL syringe. After 3 weeks of breeding, when the average tumor size was 100 to 150 mm^3, mice were randomly divided into groups of 7 and administered each compound. The compound was prepared in an excipient (0.5% DMSO/2% Tween 80/20% PEG 400/20% b-HPCD in 77.5% DW) as an agent for oral administration, and administered orally once a day from day 1 to day 21 to the mouse model in which a tumor was generated. From day 1 to day 21, the body weight was measured once daily, and the tumor size was measured three times a week. The tumor size was measured using a caliper and calculated using the following formula.
In Mathematical Formula 2, W is a length, and d is a width.
On day 21, all animals were euthanized, blood samples were collected, and tumors were removed. To evaluate blood toxicity, blood was collected from an EDTA-containing blood collection tube, and subjected to a general blood test (complete blood count, CBC) and a blood biochemical test. Isolated tumors were weighed after photographing and a portion was used to measure NAD to verify the on-target efficacy of the compound. To measure NAD, a NAD/NADH Quantitation Colorimetric Kit (K337) produced by BioVision was used.
The pharmacological effect of each compound in the NAPRT-negative cancer cell xenograft models, obtained in this experiment, is shown in Table 3 in the unit of % TGI (tumor growth inhibition).

NamPT, sequence (P43490 whole entry): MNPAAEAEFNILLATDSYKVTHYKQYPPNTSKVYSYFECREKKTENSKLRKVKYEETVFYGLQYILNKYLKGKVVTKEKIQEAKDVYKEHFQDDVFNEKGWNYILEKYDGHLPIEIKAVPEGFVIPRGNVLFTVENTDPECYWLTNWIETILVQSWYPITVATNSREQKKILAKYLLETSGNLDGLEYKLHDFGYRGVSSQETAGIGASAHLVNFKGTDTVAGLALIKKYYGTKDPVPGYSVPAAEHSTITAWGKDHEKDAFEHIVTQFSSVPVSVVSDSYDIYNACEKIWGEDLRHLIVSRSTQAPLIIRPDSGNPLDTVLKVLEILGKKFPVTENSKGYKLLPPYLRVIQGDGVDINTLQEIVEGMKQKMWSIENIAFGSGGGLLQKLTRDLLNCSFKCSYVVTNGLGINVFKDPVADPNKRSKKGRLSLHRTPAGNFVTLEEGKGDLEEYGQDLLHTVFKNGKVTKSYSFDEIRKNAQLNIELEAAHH

Structure (SMILES) | EC50 [1] [µM] | IC50 (NamPT) [µM] | EC50 [2] [µM] | % TGI (Tumor Growth inhibition) [3] [%]
O=C(NCc1ccc(-c2nc3ccccc3o2)cc1)c1cnc2nccn2c1 [Example 2, N-[[4-(1,3-benzoxazol-2-yl)phenyl]methyl]imidazo[1,2-a]pyrimidin-6-carboxamide] | < 0.05 | 0.051 to 0.1 | > 101 | 
CC(C)c1ccc2nc(-c3ccc(CNC(=O)c4cnc5nccn5c4)cc3)oc2c1 [Example 3] | < 0.05 |  | > 101 | 
O=C(NCc1ccc(-c2nc3ccc(Cl)cc3o2)cc1)c1cnc2nccn2c1 [Example 4, N-[[4-(6-chloro-1,3-benzoxazol-2-yl)phenyl]methyl]imidazo[1,2-a]pyrimidin-6-carboxamide] | < 0.05 | < 0.05 | > 101 | 80
Cc1ccc2oc(-c3ccc(CNC(=O)c4cnc5nccn5c4)cc3)nc2c1 [Example 6, N-[[4-(5-methyl-1,3-benzoxazol-2-yl)phenyl]methyl]imidazo[1,2-a]pyrimidin-6-carboxamide] | < 0.05 | < 0.05 | > 101 | 
CS(=O)(=O)c1ccc2oc(-c3ccc(CNC(=O)c4cnc5nccn5c4)cc3)nc2c1 [Example 9, N-[[4-(5-methylsulfonyl-1,3-benzoxazol-2-yl)phenyl]methyl]imidazo[1,2-a]pyrimidin-6-carboxamide] | < 0.05 | < 0.05 | > 101 | 
Cc1cc2nc(-c3ccc(CNC(=O)c4cnc5nccn5c4)cc3)oc2cc1Cl [Example 10, N-[[4-(6-chloro-5-methyl-1,3-benzoxazol-2-yl)phenyl]methyl]imidazo[1,2-a]pyrimidin-6-carboxamide] | < 0.05 | < 0.05 | > 101 | 61
Cc1cc2nc(-c3ccc(CNC(=O)c4cnc5nccn5c4)cc3)oc2cc1F [Example 11, N-[[4-(6-fluoro-5-methyl-1,3-benzoxazol-2-yl)phenyl]methyl]imidazo[1,2-a]pyrimidin-6-carboxamide] |  | < 0.05 |  | 82
O=C(NCc1ccc(-c2nc3cc(C(F)(F)F)ccc3o2)cc1)c1cnc2nccn2c1 [Example 13, N-[[4-[5-(trifluoromethyl)-1,3-benzoxazol-2-yl]phenyl]methyl]imidazo[1,2-a]pyrimidin-6-carboxamide] | < 0.05 | < 0.05 | > 101 | 63
O=C(NCc1ccc(-c2nc3ccc(F)cc3o2)cc1)c1cnc2nccn2c1 [Example 17, N-[[4-(6-fluoro-1,3-benzoxazol-2-yl)phenyl]methyl]imidazo[1,2-a]pyrimidin-6-carboxamide] | 0.051 to 0.1 | 0.051 to 0.1 | > 101 | 
O=C(NCc1ccc(-c2nc3ccc(C(F)(F)F)cc3o2)cc1)c1cnc2nccn2c1 [Example 19, N-[[4-[6-(trifluoromethyl)-1,3-benzoxazol-2-yl]phenyl]methyl]imidazo[1,2-a]pyrimidin-6-carboxamide] | 0.051 to 0.1 | < 0.05 | > 101 | 
COc1ccc2nc(-c3ccc(CNC(=O)c4cnc5nccn5c4)cc3)oc2c1 [Example 22, N-[[4-(6-methoxy-1,3-benzoxazol-2-yl)phenyl]methyl]imidazo[1,2-a]pyrimidin-6-carboxamide] | 0.051 to 0.1 | < 0.05 | > 101 | 
CCNC(=O)c1ccc2oc(-c3ccc(CNC(=O)c4cnc5nccn5c4)cc3)nc2c1 [Example 31, N-ethyl-2-[4-[(imidazo[1,2-a]pyrimidin-6-carbonxylamino)methyl]phenyl]-1,3-benzoxazol-5-carboxamide] | < 0.05 | < 0.05 | > 101 | 
CN(C)C(=O)c1ccc2oc(-c3ccc(CNC(=O)c4cnc5nccn5c4)cc3)nc2c1 [Example 32, 2-[4-[(imidazo[1,2-a]pyrimidin-6-carbonylamino)methyl]phenyl]-N,N-dimethyl-1,3-benzoxazol-5-carboxamide] | < 0.05 | < 0.05 | 10 to 100 | 
O=C(NCc1ccc(-c2nc3cc(C(=O)N4CCC4)ccc3o2)cc1)c1cnc2nccn2c1 [Example 33, N-[[4-[5-(azetidin-1-carbonyl)-1,3-benzoxazol-2-yl]phenyl]methyl]imidazo[1,2-a]pyrimidin-6-carboxamide] | < 0.05 | < 0.05 | > 101 | 
O=C(NCc1ccc(-c2nc3cc(C(=O)N4CCCC4)ccc3o2)cc1)c1cnc2nccn2c1 [Example 34, N-[[4-[5-(pyrrolidine-1-carbonyl)-1,3-benzoxazol-2-yl]phenyl]methyl]imidazo[1,2-a]pyrimidin-6-carboxamide] | < 0.05 | < 0.05 | 10 to 100 | 
O=C(NCc1ccc(-c2nc3cc(S(=O)(=O)c4ccccc4)ccc3o2)cc1)c1cnc2nccn2c1 [Example 38, N-[[4-[5-(benzenesulfonyl)-1,3-benzoxazol-2-yl]phenyl]methy]imidazo[1,2-a]pyrimidin-6-carboxamide] | 0.051 to 0.1 | < 0.05 | > 101 | 
Cc1ccc2nc(-c3ccc(C(C)NC(=O)c4cnc5nccn5c4)cc3)oc2c1 (centres unmarked) [Example 64, N-[1-[4-(6-methyl-1,3-benzooxazol-2-yl)phenyl]ethyl]imidazo[1,2-a]pyrimidin-6-carboxamide] |  | > 1 |  | 
